Where a name gives a salt, the structure may show the parent alone.
Experiment: competition binding assay for cardiolipin with fluorescent probe I and CL-DOPC liposomes (25:75 mol %)
Settings: for EC50: 20 mM HEPES buffer, 2.5 μM CL, 5 μM I, means ± S.D. from 3 independent experiments; for relative binding affinity for CL within the studied set (in words): comparison of EC50 values; for EC50 range (in words): pH 7.4 and 6.8; for effect of pH change on interaction with CL: pH 7.4 versus 6.8
Protocol: Lipid vesicles may be composed of CL and a helper phospholipid (preferentially a phosphatidylcholine) or may have a more complex composition with several phospholipids, provided that the formulation is stable in the used medium. […] [18]
Final concentration of the fluorescent probe I may range from 0.2 μM to 25 μM. Optimal incubation temperature is 37° C. because it represents physiological temperature and allows shortening of the incubation time.
A fluorimeter is required that is capable of scanning emission intensity at a desired wavelength, as well as a plate shaker-thermostat. Assay is carried out in 96-well microplates for fluorescence-based assays. […]
Also place a triplicate of CL containing lipid vesicles without a ligand (vehicle); • 3. Place the 96-well microplate in a plate shaker-thermostat for 10 min (500 RPM, 37° C.). • 4. Add appropriate amount of I stock solution (I final concentration 5 μM) to the wells, including wells containing vehicle, and mix gently with a micro pipette by sucking the solution gently up and down (approximately 5 times); • 5. Incubate for 15 min in a plate shaker-thermostat (500 RPM, 37° C.); • 6. Measure fluorescence intensity at an excitation and emission wavelength of 497 and 529 nm, respectively; • 7. […] Plot the normalized fluorescence intensity against the concentration of the ligand on a logarithmic scale; • 9. Fit the titration curve with a suitable fitting model to calculate EC50 values.

| Compound | EC50 (pH = 6.8) | EC50 (pH = 7.4) | other results |
| --- | --- | --- | --- |
| [Ca+2].[Cl-].[Cl-] [Example 3, Calcium chloride] | 1290 ± 130 µM | 1334 ± 10.1 µM | lower EC50 than Mg^2+ (pH 7.4, 20 mM HEPES, FIG. 1B): ≈ 30% |
| [H]/N=C(/N)N[C@H]1[C@H](O)[C@@H](O)[C@H](O[C@@H]2O[C@@H](C)[C@](O)(C=O)[C@H]2O[C@@H]2O[C@@H](CO)[C@H](O)[C@@H](O)[C@@H]2NC)[C@@H](N/C(N)=N\[H])[C@@H]1O [Example 10, 2-[(1R,2R,3S,4R,5R,6S)-3-(diaminomethyldeneamino)-4-[(2R,3R,4R,5S)-3-[(2S,3S,4S,5R,6S)-4,5-dihydroxy-6-(hydroxymethyl)-3-(methylamino)oxan-2-yl]oxy-4-formyl-4-hydroxy-5-methyloxolan-2-yl]oxy-2,5,6-trihydroxycyclohexyl]guanidine] | – | 9.82 ± 1.76 µM | relative binding affinity for CL within the studied set (in words) (20 mM HEPES, listed as streptomycin): lowest affinity for CL |
| NC[C@H]1O[C@H](O[C@H]2[C@H](O)[C@@H](O[C@H]3O[C@H](CO)[C@@H](O)[C@H](N)[C@H]3O)[C@H](N)C[C@@H]2N)[C@H](N)C[C@@H]1O [Example 12, (2S,3R,4S,5S,6R)-4-amino-2-{[(1S,2S,3R,4S,6R)-4,6-diamino-3-{[(2R,3R,5S,6R)-3-amino-6-(aminomethyl)-5-hydroxyoxan-2-yl]oxy}-2-hydroxycyclohexyl]oxy}-6-(hydroxymethyl)oxane-3,5-diol] | – | 4.37 ± 0.32 µM | – |
| COc1cccc2c1C(=O)c1c(O)c3c(c(O)c1C2=O)C[C@@](O)(C(C)=O)C[C@@H]3O[C@H]1C[C@H](N)[C@H](O)[C@H](C)O1 [Example 6, (8S,10S)-8-acetyl-10-(((2R,4S,5S,6S)-4-amino-5-hydroxy-6-methyltetrahydro-2H-pyran-2-yl)oxy)-6,8,11-trihydroxy-1-methoxy-7,8,9,10-tetrahydrotetracene-5,12-dione hydrochloride] | – | 4.35 ± 1.25 µM | – |
| CCCCCCCCC[P+](c1ccccc1)(c1ccccc1)c1ccccc1.[Br-] [Example 13, Nonyltriphenylphosphonium bromide] | 36.6 ± 2.93 µM | 19.8 ± 0.75 µM | EC50 range (in words) (20 mM HEPES): micromolar range; relative binding affinity for CL within the studied set (in words) (20 mM HEPES): lower affinities than studied aminoglycosides or anthracyclines; affinity for CL higher than that of dodecyltrimethylammonium chloride (pH 7.4, 20 mM HEPES, FIG. 2A): ≈ 30%; effect of pH change on interaction with CL: affected by changes of pH |
| COc1cccc2c1C(=O)c1c(O)c3c(c(O)c1C2=O)C[C@@](O)(C(=O)CO)C[C@@H]3O[C@H]1C[C@H](N)[C@@H](O)[C@H](C)O1 [Example 5, (8S,10S)-10-(((2R,4S,5R,6S)-4-amino-5-hydroxy-6-methyltetrahydro-2H-pyran-2-yl)oxy)-6,8,11-trihydroxy-8-(2-hydroxyacetyl)-1-methoxy-7,8,9,10-tetrahydrotetracene-5,12-dione hydrochloride] | 5.86 ± 0.25 µM | 6.94 ± 0.9 µM | – |
| [Cl-].[Cl-].[Mg+2] [Example 4, Magnesium chloride] | – | 1930 ± 20.5 µM | – |
| Cl.N [Example 2, Ammonium chloride] | – | 31853 ± 2.3 µM | fold lower affinity for CL than Ca^2+ ions (pH 7.4, 20 mM HEPES, FIG. 1B): 23 fold |
| Cytochrome c [Example 1] | 0.28 ± 0.02 µM | 0.32 ± 0.06 µM | relative binding affinity for CL within the studied set (in words) (20 mM HEPES): the highest binding affinity for CL |
| (2R,3R,4S,5S,6S)-5-amino (((2R,3S,4R,4aR,6S,7R,8aS)-7-amino-6-(((1R,2R,3S,4R,6S)-4,6-diamino-2,3-dihydroxycyclohexyl)oxy)-4-hydroxy-3-(methylamino)octahydropyrano[3,2-b]pyran-2-yl)oxy)-6-(hydroxymethyl)tetrahydro-2H-pyran-3,4-diol sulfate [Example 9] | – | 3.34 ± 0.95 µM | – |
| CCCCCCCCCCCC[N+](C)(C)C.[Cl-] [Example 14, Dodecyltrimethylammonium chloride] | 74.4 ± 8.47 µM | 30.7 ± 2.75 µM | EC50 range (in words) (20 mM HEPES): micromolar range; relative binding affinity for CL within the studied set (in words) (20 mM HEPES): lower affinities than studied aminoglycosides or anthracyclines; effect of pH change on interaction with CL: affected by changes of pH |

— US12625142B2, “Assay for measuring binding affinity for cardiolipin of biologically active compounds” (Latvian Institute of Organic Synthesis, priority 2020, dated 2026)
